Results on eleven compounds are retold here after ChEMBL document CHEMBL1201862, “PubChem BioAssay data set” (2004).

Assay [1] has as its target T1, Methionyl-tRNA synthetase, putative (Trypanosoma brucei brucei, UniProt Q38C91).
T1 sequence (Q38C91 whole entry): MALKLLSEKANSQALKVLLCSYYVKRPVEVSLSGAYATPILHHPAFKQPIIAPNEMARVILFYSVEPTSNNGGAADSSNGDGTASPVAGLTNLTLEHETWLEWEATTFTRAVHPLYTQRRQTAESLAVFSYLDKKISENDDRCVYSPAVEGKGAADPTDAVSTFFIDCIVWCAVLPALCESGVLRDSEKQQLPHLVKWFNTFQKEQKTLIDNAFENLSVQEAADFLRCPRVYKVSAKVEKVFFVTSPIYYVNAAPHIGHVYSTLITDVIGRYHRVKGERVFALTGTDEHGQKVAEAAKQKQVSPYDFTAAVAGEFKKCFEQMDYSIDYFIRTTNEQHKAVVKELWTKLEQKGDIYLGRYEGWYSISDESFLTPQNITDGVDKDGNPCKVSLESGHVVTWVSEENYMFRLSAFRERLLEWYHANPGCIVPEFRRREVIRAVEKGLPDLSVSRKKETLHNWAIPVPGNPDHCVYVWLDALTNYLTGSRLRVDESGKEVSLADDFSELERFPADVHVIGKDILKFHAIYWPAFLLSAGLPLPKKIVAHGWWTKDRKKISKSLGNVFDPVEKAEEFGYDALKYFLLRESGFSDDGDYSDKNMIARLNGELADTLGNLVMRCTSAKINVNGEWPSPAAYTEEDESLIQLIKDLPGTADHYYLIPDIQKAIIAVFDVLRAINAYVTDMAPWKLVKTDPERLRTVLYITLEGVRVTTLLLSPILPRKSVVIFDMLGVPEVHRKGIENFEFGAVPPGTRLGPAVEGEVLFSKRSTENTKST
Type of assay: functional, Trypanosoma brucei brucei strain 927/4 GUTat10.1.

Assay [2] can be described thus: Counterscreen for inhibitors of Trypanosoma brucei methionyl tRNA synthetase (MetRS): Luminescence-based cell-based high throughput dose response assay to identify compounds that are cytotoxic to Jurkat human T lymphocyte cells. Type of assay: functional. On the technique in general: Counterscreens check selectivity or assay interference.
In assay [3] the target is T1, Methionyl-tRNA synthetase, putative. Type of assay: functional, Trypanosoma brucei brucei strain 927/4 GUTat10.1. The source holds these as a separate data set.
The target in assay [4] is Fructose-bisphosphate aldolase (Mycobacterium tuberculosis, UniProt P9WQA3). Put plainly: Fluorescence-based biochemical high throughput dose response assay for inhibitors of the fructose-bisphosphate aldolase (FBA) of M. tuberculosis. Type of assay: functional.
For assay [5], the target named is Beta-lactamase (Salmonella choleraesuis (strain SC-B67), UniProt Q5J463). Put plainly: Epi-absorbance-based counterscreen for selective VIM-2 inhibitors: dose response biochemical high throughput screening assay to identify inhibitors of TEM-1 serine-beta-lactamase.
Assay [6] addresses T2, Beta-lactamase (Pseudomonas aeruginosa, UniProt Q79MP6). Put plainly: IMP-1 metallo-beta-lactamase inhibitors, dose response, selectivity assay for VIM-2 inhibitor project, biochemical, epi-absorbance (AID 1920).
The target of assay [7] is T2, Beta-lactamase. Put plainly: […] counterscreen for selective VIM-2 inhibitors: dose response biochemical high throughput screening assay to identify inhibitors of IMP-1 metallo-beta-lactamase.
Assay [8] concerns the target G-protein coupled receptor 55 (Homo sapiens, UniProt Q9Y2T6). Description: GPR55 antagonists blocking LPI-driven arrestin recruitment, primary screen, imaging, U2OS, beta-arrestin-GFP, LPI agonist (AID 2013).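 Further: antagonist potency measured as reduced agonist-driven arrestin aggregation.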 Type of assay: functional.
Assay [9] is described as follows: HeLa cell cytotoxicity, dose response, cytotoxicity control for MgcRacGAP inhibitor project (AID 624300). Type of assay: functional.
For assay [10], the target named is T3, Rac GTPase-activating protein 1 (Homo sapiens, UniProt Q9H0H5).
T3 sequence (Q9H0H5 whole entry): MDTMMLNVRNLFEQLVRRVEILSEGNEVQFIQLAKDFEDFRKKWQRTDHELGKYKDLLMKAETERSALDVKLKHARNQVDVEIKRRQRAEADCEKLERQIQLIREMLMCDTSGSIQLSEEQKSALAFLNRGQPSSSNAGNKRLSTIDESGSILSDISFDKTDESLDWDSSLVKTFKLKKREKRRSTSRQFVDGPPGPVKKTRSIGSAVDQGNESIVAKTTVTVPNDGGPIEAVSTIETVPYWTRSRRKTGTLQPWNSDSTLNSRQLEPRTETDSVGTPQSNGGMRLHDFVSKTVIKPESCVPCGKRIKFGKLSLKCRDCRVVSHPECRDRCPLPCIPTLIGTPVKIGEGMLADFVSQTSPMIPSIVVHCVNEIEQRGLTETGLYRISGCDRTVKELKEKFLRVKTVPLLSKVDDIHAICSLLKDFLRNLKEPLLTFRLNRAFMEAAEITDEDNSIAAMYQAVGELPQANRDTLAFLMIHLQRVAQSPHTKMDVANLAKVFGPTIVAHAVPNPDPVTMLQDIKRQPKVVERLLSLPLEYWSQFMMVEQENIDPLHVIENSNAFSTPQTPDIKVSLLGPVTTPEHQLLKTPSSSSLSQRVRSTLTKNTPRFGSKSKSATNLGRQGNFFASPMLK
Put plainly: MgcRacGAP GTPase-activating activity inhibitors, confirmation, biochemical, ADP Hunter fluorescence, primary and confirmatory (AID 624330). Type of assay: functional.

For assay [11], the target named is Melanocortin receptor 4 (Homo sapiens, UniProt P32245). Type of assay: functional, cell-based.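 Further: Cell-based assay with luminescence read-out, confirmatory dose-response testing for agonist activity of biased ligands at MC4R; human U2OS cells with tagged receptor and beta-arrestin; potency of agonists that increase receptor coupling to beta-arrestin.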
For assay [12], the system named is A549. Put plainly: A549 cell toxicity, dose response, cytotoxicity control, plate reader, cherry-pick samples (AID 687028). Type of assay: functional, cell-based. The following applies: Homo sapiens.
The target in assay [13] is Luciferin 4-monooxygenase (Photinus pyralis, UniProt P08659). Put plainly: firefly luciferase enzyme inhibitors, dose response, biochemical, luminescence (AID 1891).
Assay [14] can be described thus: Luminescence Cell-Based Dose Confirmation HTS to Identify Inhibitors of Platelet Dense Granule Release. [Related pubchem assays: 1663 (Primary HTS), 1678 (Summary of Project)]. Type of assay: functional.
Assay [15] deals with Vero. Description: Vero cell toxicity, dose response, cytotoxicity control, plate reader, cherry-pick samples (AID 687020). Type of assay: functional, cell-based. To be noted: Chlorocebus sabaeus.
Assay [16] has as its system H9c2. Put plainly: cells. Type of assay: functional, cell-based. To be noted: Rattus norvegicus, H9c2, Myocardium.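 Further: confirmatory concentration-response retest of ultra-high-throughput screening hits for modulation of myocardial damage; cell death induced by hydrogen peroxide oxidative stress; compound pretreatment for 60 min then peroxide exposure for 2 h; potency is for protecting the cells against peroxide damage rather than for killing them.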
Assay [17] concerns the target Paired box protein Pax-8 (Homo sapiens, UniProt Q06710). Put plainly: inhibitors of PAX8-driven TPO luciferase reporter, dose response, RMG-I cells, cherry-pick (AID 687027).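 Further: luciferase reporter driven by Pax8 target thyroperoxidase promoter measured by SteadyGlo luminescence.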 Type of assay: functional, cell-based. A general note: A reporter such as luciferase makes a cellular process visible.
A short description of assay [18]: non-specific cell cytotoxicity, dose response, cytotoxicity control for PAX8 inhibitor project, plate reader, dry powder samples (AID 743021). Type of assay: functional, cell-based.

Calls of active or inactive are those of the source.

A word on the IC50: it is the concentration needed to halve the response being measured. For orientation: CC50 means the concentration at which the toxic effect on the cells reaches its halfway point. A word on the EC50: it is the concentration at which the effect is half-maximal. As a reminder, the AC50 is the concentration at which the activity in the assay is half-maximal.

T2 sequence (Q79MP6 whole entry): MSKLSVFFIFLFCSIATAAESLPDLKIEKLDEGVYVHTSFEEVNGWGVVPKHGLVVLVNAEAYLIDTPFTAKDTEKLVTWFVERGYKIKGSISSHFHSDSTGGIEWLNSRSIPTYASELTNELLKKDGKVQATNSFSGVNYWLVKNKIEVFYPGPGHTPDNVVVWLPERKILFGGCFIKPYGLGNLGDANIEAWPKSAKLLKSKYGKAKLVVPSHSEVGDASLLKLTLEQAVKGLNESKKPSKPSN
Sequence of Beta-lactamase (Salmonella choleraesuis (strain SC-B67), UniProt Q5J463) (Q5J463 whole entry): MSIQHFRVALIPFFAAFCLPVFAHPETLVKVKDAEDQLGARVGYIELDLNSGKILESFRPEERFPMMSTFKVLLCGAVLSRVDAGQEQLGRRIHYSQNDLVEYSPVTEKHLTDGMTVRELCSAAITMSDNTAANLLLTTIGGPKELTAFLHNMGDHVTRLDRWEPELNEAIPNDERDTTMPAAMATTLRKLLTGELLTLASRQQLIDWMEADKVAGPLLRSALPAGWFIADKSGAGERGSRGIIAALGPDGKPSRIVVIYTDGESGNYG
Sequence of Fructose-bisphosphate aldolase (P9WQA3 whole entry): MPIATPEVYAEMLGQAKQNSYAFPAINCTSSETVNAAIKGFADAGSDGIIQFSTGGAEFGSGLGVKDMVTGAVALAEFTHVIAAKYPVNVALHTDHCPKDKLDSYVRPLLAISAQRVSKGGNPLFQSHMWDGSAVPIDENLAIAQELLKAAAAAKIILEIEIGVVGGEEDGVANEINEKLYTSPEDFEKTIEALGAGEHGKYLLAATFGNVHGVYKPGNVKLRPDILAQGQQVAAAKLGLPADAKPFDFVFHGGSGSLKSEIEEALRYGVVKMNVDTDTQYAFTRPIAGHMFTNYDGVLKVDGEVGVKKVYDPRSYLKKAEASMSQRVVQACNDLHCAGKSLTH
Sequence of Luciferin 4-monooxygenase (P08659 whole entry): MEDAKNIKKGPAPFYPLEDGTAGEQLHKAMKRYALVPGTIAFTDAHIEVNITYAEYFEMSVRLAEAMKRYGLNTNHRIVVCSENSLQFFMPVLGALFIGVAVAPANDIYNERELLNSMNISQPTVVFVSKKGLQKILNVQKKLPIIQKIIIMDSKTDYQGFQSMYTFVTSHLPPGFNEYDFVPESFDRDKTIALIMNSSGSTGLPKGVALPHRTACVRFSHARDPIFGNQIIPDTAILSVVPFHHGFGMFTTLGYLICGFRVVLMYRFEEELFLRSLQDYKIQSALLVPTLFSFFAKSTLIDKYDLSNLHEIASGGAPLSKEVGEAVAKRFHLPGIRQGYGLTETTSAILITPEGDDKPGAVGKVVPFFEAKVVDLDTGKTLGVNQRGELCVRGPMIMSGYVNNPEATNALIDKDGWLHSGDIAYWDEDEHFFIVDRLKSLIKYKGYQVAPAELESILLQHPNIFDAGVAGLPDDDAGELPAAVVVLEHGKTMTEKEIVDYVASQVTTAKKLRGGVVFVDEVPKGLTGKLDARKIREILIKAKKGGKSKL
Sequence of Paired box protein Pax-8 (Q06710 whole entry): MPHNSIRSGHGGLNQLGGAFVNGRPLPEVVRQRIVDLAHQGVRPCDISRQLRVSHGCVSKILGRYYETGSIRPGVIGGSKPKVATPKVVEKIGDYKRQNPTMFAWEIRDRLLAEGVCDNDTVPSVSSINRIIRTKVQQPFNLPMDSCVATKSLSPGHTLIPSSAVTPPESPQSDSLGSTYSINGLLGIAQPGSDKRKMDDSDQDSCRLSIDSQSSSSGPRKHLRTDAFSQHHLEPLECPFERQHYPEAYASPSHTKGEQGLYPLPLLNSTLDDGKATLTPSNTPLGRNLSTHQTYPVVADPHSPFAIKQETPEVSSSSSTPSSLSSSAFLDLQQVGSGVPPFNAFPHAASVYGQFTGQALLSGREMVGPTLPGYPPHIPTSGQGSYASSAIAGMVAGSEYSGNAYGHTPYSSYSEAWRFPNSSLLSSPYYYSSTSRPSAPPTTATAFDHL
Sequence of Melanocortin receptor 4 (P32245 whole entry): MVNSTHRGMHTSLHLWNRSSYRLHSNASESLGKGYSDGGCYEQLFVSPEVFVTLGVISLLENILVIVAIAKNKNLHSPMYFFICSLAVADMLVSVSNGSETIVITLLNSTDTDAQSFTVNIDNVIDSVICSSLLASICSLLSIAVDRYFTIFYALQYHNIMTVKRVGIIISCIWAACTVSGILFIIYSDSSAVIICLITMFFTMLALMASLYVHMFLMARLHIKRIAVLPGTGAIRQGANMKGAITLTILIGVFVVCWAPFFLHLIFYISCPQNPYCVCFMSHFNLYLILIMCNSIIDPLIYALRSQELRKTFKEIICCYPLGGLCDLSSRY
Sequence of G-protein coupled receptor 55 (Q9Y2T6 whole entry): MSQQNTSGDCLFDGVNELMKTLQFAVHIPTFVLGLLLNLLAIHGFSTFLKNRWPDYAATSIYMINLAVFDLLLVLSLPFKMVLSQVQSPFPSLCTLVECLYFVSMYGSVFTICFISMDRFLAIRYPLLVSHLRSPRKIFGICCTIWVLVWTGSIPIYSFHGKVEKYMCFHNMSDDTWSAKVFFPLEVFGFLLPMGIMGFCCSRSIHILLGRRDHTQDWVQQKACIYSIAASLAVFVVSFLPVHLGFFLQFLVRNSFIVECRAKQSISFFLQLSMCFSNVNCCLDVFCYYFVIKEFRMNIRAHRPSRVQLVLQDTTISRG

For the compound `O=C(CCCSc1ccc(Cl)cc1)Nc1ccccc1O`, the IC50 in assay [1] is 24.1 µM (inactive); in assay [2] it was 0.158 µM (active); in [3], 24.8 µM (inactive).

Turning to `CCS(=O)(=O)Nc1ccccc1C(N)=O`, the IC50 in [4] is 2.58 µM (active).

With `C=CCn1c(S)nnc1C1CC1`, the IC50 in assay [5], in [6] and in assay [7] was > 59.6 µM (inactive) each time.

Regarding `O=C(O)CC/C(=C\c1cc([N+](=O)[O-])ccc1Cl)c1nc2ccccc2s1`, the IC50 in assay [5] is > 59.6 µM (inactive); in assay [6], > 59.6 µM (inactive); in [7] it was 43.1 µM (inactive).

As to `Cc1n[nH]c(-c2ccc(O)cc2O)c1Oc1ccccc1`, the IC50 is 8.31 µM (active) in assay [8] and 34.2 µM (active) in [10]. In assay [9], the CC50 was 100 µM (active).

Turning to `CC(=O)Nc1cc(-c2ccc(C(=O)NC3CC3)cc2)cn2c(-c3cccc(C(F)(F)F)c3)cnc12`, the EC50 in assay [11] was > 89.2 µM (inactive). Further, the AC50 in assay [12] was 26.8 µM (active).

In the case of `CCN(CC)c1ccc(/C=N/NC(=O)c2ccoc2C)cc1`, the EC50 in assay [13] was 1.42 µM (active); in assay [14], 3.59 µM (active). Moreover, the CC50 in assay [9] is 100 µM (active).

In the case of `COC(=O)c1ccc2nc(-c3ccc(F)cc3)c(Cc3ccccc3OC)n2c1`, the AC50 in assay [15] is 35.2 µM (active).

`CCOC(=O)CC1(C)Sc2ccccc2N1S(=O)(=O)c1ccc(C)cc1` (centres undefined): the AC50 in [15] is 28.5 µM (active).

As for `CNc1cccc(-c2ccc(N3CCN(C)CC3)nc2)n1`, the IC50 in assay [4] is 2.18 µM (active).

As for `C=C1C(C)C2C(Cc3ccccc3)NC(=O)C23OC(=O)/C=C/C(O)CCCC(C)C/C=C/C3C1O` (centres undefined), the IC50 in [16] is > 79 µM (inactive). The values for the AC50 in assay [17] and in assay [18] were 3.15 µM (active) and 3.36 µM (active), respectively.
